This note sets out measurements from PMC10983001, “Development of Cytotoxic GW7604-Zeise’s Salt Conjugates as Multitarget Compounds with Selectivity for Estrogen Receptor- Positive Tumor Cells” (Journal of Medicinal Chemistry, 2024).

Data set [1] has as its target T1, ERβ ligand-binding domain (Homo sapiens, UniProt Q92731).
T1 construct: purchased Invitrogen
Briefly: TR-FRET ligand binding assay, isolated LBD of ERβ. On the procedure: A modified LanthaScreen TR-FRET alpha/beta assay was performed, according to the manufacturer’s protocol (Invitrogen, Carlsbad, […]), to determine the binding affinity to the isolated LBD. […] Measurements were carried out on a multimode plate reader, Tecan Spark (Tecan, Männedorf, Switzerland). Calculations and visualization were performed with GraphPad Prism 8.0 (GraphPad Software, San Diego, CA, USA).
On the technique in general: In TR-FRET formats the signal depends on donor and acceptor labels being close together.

The subject of another data set is MCF-7 cells. In words: MTT assay of metabolic activity, MCF-7. Format: cell-based, human. The settings on record: 72 h, MTT; read-out: IC50 MCF-7. On the procedure:
(§1) The GW7604-Alk-PtCl3 complexes (with exclusion of GW7604-Prop-PtCl3) were investigated for cytotoxic effects in SKBr3 (ER-negative, COX-2-positive, Figure 6), MCF-7 (ERα-positive, COX-negative, Figure 6), and noncancerous TSA-201 (human embryonal kidney) cells at concentrations of 10–30 μM using an established MTT (3-(4,5-dimethylthiazol-2-yl)-2,5-diphenyltetrazolium bromide) assay.[60],[69]
(§2) After incubation for 72 h, the amounts of surviving, metabolically active cells were quantified based on their ability to transform the water-soluble yellow dye MTT to a purple formazan, which can be analyzed by UV–vis spectroscopy.
(§3) The exponentially growing cells were seeded at a density of 1750 (MCF-7), 2000 (SKBr3), and 1250 (TSA-201) cells/well into clear flat-bottom 96-well plates in triplicate. Following 24 h of incubation at 37 °C in a humidified atmosphere (5% CO2/95% air), the compounds [freshly prepared stock solutions in DMF, diluted with DMEM to the desired concentration (final DMF concentration of 0.1% (v/v))] were added to reach the indicated concentrations. After another 72 h of incubation, the cellular metabolic activity was measured employing an MTT assay. By adding predissolved MTT reagent in PBS at a final concentration of 0.5 mg/mL, the metabolic activity can be determined via an enzymatic conversion to a purple formazan salt. After 3 h, the medium was aspirated, and 200 μL of DMSO was added to dissolve the formed formazan crystals. The absorbance was measured at 570 and 690 nm (turbidity assessment) using an EnSpire plate reader (PerkinElmer, Waltham, MA, USA). Solvent-treated cells without a compound served as the positive control. Metabolic activity was calculated by the following equation [drawing 1]
(In general: Tetrazolium dyes change colour on reduction, which living cells bring about.)

A further data set has as its system TSA-201 cells. Briefly: MTT assay of metabolic activity, noncancerous TSA-201. The following applies: 72 h. It counts as cell-based, human. Here is the method: as §1, §2, §3
The test system of the next data set is ERα in MCF-7 cells. Briefly: Western blot analysis of ER downregulation. Format: cell-based, human. The following applies: MCF-7, 20 μM, 24 h. Here is the method: The exponentially growing cells were seeded at a density of 2.5 × 10^6 (MCF-7) and 3.0 × 10^6 (SKBr3) cells into 75 cm^2 flasks. The cells were incubated for 24 h in a humidified atmosphere (5% CO2/95% air) at 37 °C. For downregulation experiments, a stock solution of GW7604-Pent-PtCl3 in DMF was freshly prepared and diluted with DMEM containing 10% FCS to the desired concentration [final DMF concentration of 0.1% (v/v), final complex concentration of 20 μM]. The medium in the flasks was replaced with fresh cell culture medium containing the compound, and the flasks were incubated in a humidified atmosphere at 37 °C for 24 h. Afterward, cells were harvested (cell scratcher), and samples were lysed using a modified radio immunoprecipitation assay buffer [50 mM of TRIS (pH = 8.0), 150 mM NaCl, 0.5% NP-40, 50 mM NaF, 1 mM […], 1 mM phenylmethylsulfonyl fluoride, and protease inhibitors (EDTA-free; Roche, Basel, Switzerland)]. Total protein concentration was determined by employing the Bradford assay as described above, and samples were analyzed on the JESS ProteinSimple (Bio-Techne, Minneapolis, MN, USA) according to the manufacturer’s protocol. The following antibodies were used: GAPDH (no. 2118S, cell signaling), ERα (no. 8644S, cell signaling), and COX-2 (no. 12282, cell signaling). All primary antibodies were diluted with antibody diluents provided by ProteinSimple.
(Immunoblotting shows a protein as a band on a membrane.)

For data set [2] the following is noted: 30 μM, DMEM + 10% FCS, 37 °C, dark.
Description: After protein precipitation with ice-cold methanol (MeOH), the compounds remaining in solution were analyzed by HPLC and electrospray ionization high-resolution mass spectrometry (ESI-HR-MS).
The solution was then incubated for 4 h at 37 °C in the dark. Proteins were precipitated upon addition of 33 mL of ice-cold MeOH, and the mixture was stored for 2 h at −20 °C. The supernatant was then separated by centrifugation (3000 rpm), collected, and dried by lyophilization. The lyophilizate was extracted three times with 5 mL of MeOH and finally dried under reduced pressure. The residue was taken up in 1 mL of HPLC-grade MeOH, and 30 μL thereof was analyzed by HPLC and ESI-HR-MS.

T1 sequence (Q92731 264-498 limits assumed): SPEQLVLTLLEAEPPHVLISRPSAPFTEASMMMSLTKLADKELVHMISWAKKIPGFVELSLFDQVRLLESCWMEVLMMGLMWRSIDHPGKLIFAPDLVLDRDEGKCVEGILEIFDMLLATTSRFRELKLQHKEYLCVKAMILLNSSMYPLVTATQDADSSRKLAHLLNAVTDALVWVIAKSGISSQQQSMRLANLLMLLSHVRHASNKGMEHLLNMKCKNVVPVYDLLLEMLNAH

For `CCC(=C(c1ccc(O)cc1)c1ccc(C=CC(=O)OCCC[CH]2[CH2][Pt-]2([Cl])([Cl])[Cl])cc1)c1ccccc1.[K+]` (mixture of isomers) [GW7604-Pent-PtCl3, Potassium trichlorido[η^2-(pent-4-en-1-yl (E)-3-(4-((E/Z)-1-(4-hydroxyphenyl)-2-phenylbut-1-en-1-yl)phenyl)acrylate)]platinate(II)], the “RBA (ERβ)” value in data set [1] (RBA(E2) = 100%) worked out at 6.02%. Moreover, the IC50 in data set [1] (read-out: IC50 (ERβ), displacement from the LBS) was 0.00399 µM; in the data set with MCF-7 cells it was 19.6 µM; with TSA-201 cells (MTT, read-out: IC50 TSA-210), over 30 µM. For the same compound, the “decrease of cell viability” value in the data set with TSA-201 cells (TSA-201, 30 μM) is reported as “about 20%”. The “ER downregulation (SERD effect)” value with ERα in MCF-7 cells is on record as “nor downregulated the ER content”. Besides, in data set [2], the “time to complete degradation in cell culture medium” value is recorded as at most 4 h.

As a reminder, the IC50 is the concentration that inhibits the measured activity by half.
